In US20080207900A1, “TWO CYCLIC OXOMORPHORIN DERIVATIVES” (priority 2007, published 2008):

Each molecule was assayed on Aβ42 production (assay: Quantitation of Aβ peptide in neuronal cell culture derived from a rat fetal brain (Aβ ELISA)). Settings: rat primary neuronal cell culture (cerebral cortex, 18-day embryos); medium recovered 3 days after adding the compound; Aβx-42 ELISA; test concentration not given.
Format: cell-based
Text: Quantitation of Aβ Peptide in Neuronal Cell Culture Derived from a Rat Fetal Brain.
The cerebral cortex was isolated from 18-day embryos of Wister rats (Charles River Japan, Yokohama, Japan) and cultured. More specifically, under ether anesthesia, embryos were aseptically resected from pregnant rats. The brains were resected from the embryos and placed in an ice cold L-15 medium (Invitrogen Corp. Cat. #11415-064, Carlsbad, Calif., USA or SIGMA L15181 and the like). From the resected brains, the cerebral cortex was collected under a stereoscopic microscope. The collected pieces of the cerebral cortex were treated in an enzyme solution containing 0.25% trypsin (Invitrogen Corp. Cat. #15050-065, Carlsbad, Calif. USA) and 0.01% DNase (Sigma D5025, St. Louis, Mo., USA) at 37° C. for 30 minutes to disperse cells. Then, the enzyme reaction was stopped by adding inactivated horse serum. The resultant enzyme treatment solution was centrifuged at 1500 rpm for 5 minutes to remove the supernatant. A medium (5-10 ml) was added to the obtained cell aggregates. The medium used was Neurobasal medium (Invitrogen Corp. Cat. #21103-049, Carlsbad, Calif., USA) added with 2% B27 supplement (Invitrogen Corp. Cat #17504-044, Carlsbad, Calif. USA), 25 μM 2-mercaptoethanol (2-ME, WAKO Cat. #139-06861, Osaka, Japan), 0.5 mM L-glutamine (Invitrogen Corp. Cat. #25030-081, Carlsbad, Calif., USA) and Antibiotics-Antimycotics (Invitrogen Corp. Cat. #15240-062, Carlsbad, Calif., USA) (Neurobasal/B27/2-ME). However, a media without 2-ME (Neurobasal/B27) was used when an assay was carried out. The cell aggregates mixed with the medium were pipetted gently to re-disperse the cells. The resultant cell dispersion was filtered through a 40 μm nylon mesh (cell strainer, Cat. #. 35-2340, Becton Dickinson Labware, Franklin Lakes, N.J., USA) to obtain a neuronal cell suspension by removing cell aggregates. The resultant neuronal cell suspension was diluted with the medium and seeded into poly-L or D-lysine coated 96 well polystyrene culture vessels (Falcon Cat. #. 35-3075, Becton Dickinson Labware, Franklin Lakes, N.J., USA, coated with poly-L-lysine by a following method or BIOCOAT™πcell environments Poly-D-lysine cell ware 96-well plate, Cat. #. 35-6461, Becton Dickinson Labware, Franklin Lakes, N.J., USA) at 100 μL/well so that the initial cell density was 5×10^5 cells/cm^2. The poly-L-lysine coating was carried out as follows. Using 0.15 M Borate buffer (SIGMA P2636, St. Louis, Mo., USA) solution was aseptically prepared. The resultant solution was added to 96 well polystyrene culture vessels at […] and incubated at room temperature for 1 hour or longer or at 4° C. overnight or longer. Then the coated 96 well polystyrene culture vessels were washed with sterilized water 4 times or more, dried or rinsed with sterilized PBS or the medium and used for seeding the cells. After culturing the seeded cells were incubated at 37° C. in an incubator under a 5% CO2-95% air for 1 day, the whole medium was replaced with fresh Neurobasal/B27/2-ME medium, and the incubation was continued for 3 days.
At day 4 of culturing, drugs were added as follows. The whole medium was withdrawn and Neurobasal medium containing 2% B-27 but no 2-ME (Neurobasal/B27) was added to the well at 180 μL/well. A dimethylsulfoxide (hereinafter abbreviated as DMSO) solution of a test compound was diluted with Neurobasal/B27 to a 10 times concentration of the final concentration. The resultant diluted solution was added to the well at 20 μL/well and mixed well. The final DMSO concentration was to be 1% or less. Only DMSO was added to the control group.
After culturing 3 days after adding the compound, the whole medium was recovered. The medium thus obtained was used as ELISA samples. For Aβx-42 measurement, no dilution was made but for Aβx-40 measurement, samples were diluted 5 folds with the diluent attached to the ELISA kit to be subjected to the ELISA tests. […]

| Structure (SMILES) | Aβ42 production reducing activity |
| --- | --- |
| COc1cc(/C=C2\O[C@@H](C)[C@H]3COC[C@@H](c4cc(F)c(F)c(F)c4)N3C2=O)ccc1-n1cnc(C)c1 [Example 2, (Z)-(1S,6R,9aR)-3-[3-methoxy-4-(4-methylimidazol-1-yl)benzylidene]-1-methyl-6-(3,4,5-trifluorophenyl)tetrahydro-[1,4]oxazino[3,4-c][1,4]oxazin-4-one] | 52 % of CTRL |
| COc1cc(/C=C2\OC(C)(C)[C@H]3CC[C@@H](c4ccc(Cl)cc4)N3C2=O)ccc1-n1cnc(C)c1 [Example 8, (Z)-(6S,8aR)-6-(4-chlorophenyl)-3-[3-methoxy-4-(4-methylimidazol-1-yl)benzylidene]-1,1-dimethyltetrahydropyrrolo[2,1-c][1,4]oxazin-4-one] | 74 % of CTRL |
| COc1cc(/C=C2\O[C@@H](C)[C@H]3CC[C@@H](c4ccc(Cl)cc4)N3C2=O)ccc1-n1cnc(C)c1 [Example 9, (Z)-(1S,6S,8aR)-6-(4-chlorophenyl)-3-[3-methoxy-4-(4-methylimidazol-1-yl)benzylidene]-1-methyltetrahydropyrrolo[2,1-c][1,4]oxazin-4-one] | 95 % of CTRL |
| COc1cc(/C=C2\OC(C)(C)[C@H]3CC[C@@H](c4cc(F)c(F)c(F)c4)N3C2=O)ccc1-n1cnc(C)c1 [Example 11, (Z)-(6S,8aR)-3-[3-methoxy-4-(4-methylimidazol-1-yl)benzylidene]-1,1-dimethyl-6-(3,4,5-trifluorophenyl)tetrahydropyrrolo[2,1-c][1,4]oxazine-4 one] | 67 % of CTRL |
| COc1cc(/C=C2\O[C@@H](C)[C@H]3CC[C@@H](c4cc(F)c(F)c(F)c4)N3C2=O)ccc1-n1cnc(C)c1 [Example 12, (Z)-(1S,6S,8aR)-3-[3-Methoxy-4-(4-methylimidazol-1-yl)benzylidene]-1-methyl-6-(3,4,5-trifluorophenyl)tetrahydropyrrolo[2,1-c][1,4]oxazin-4-one] | 91 % of CTRL |
| COc1cc(/C=C2\O[C@@H](C)[C@H]3CCC[C@@H](c4cc(F)c(F)c(F)c4)N3C2=O)ccc1-n1cnc(C)c1 [Example 17, (Z)-(1S,6S,9aR)-3-[3-methoxy-4-(4-methylimidazol-1-yl)benzylidene]-1-methyl-6-(3,4,5-trifluorophenyl)hexahydropyrido[2,1-c][1,4]oxazin-4-one] | 53 % of CTRL |
| COc1cc(/C=C2\OC(C)(C)[C@H]3COC[C@@H](c4cc(F)c(F)c(F)c4)N3C2=O)ccc1-n1cnc(C)c1 [Example 19] | 42 % of CTRL |
